The text below walks through data of PubChem BioAssay (NCI).

The structures appear in SMILES notation.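 Method: 48-hour compound exposure of cells in 96-well plates, five concentrations, linear interpolation of endpoints. TGI marks complete inhibition of growth.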

Holding throughout (test): NCI tumour cell line growth inhibition, 48 h
Assay [1] relates to IGROV1 ovarian.
Assay [2] relates to SK-MEL-28 melanoma.
For assay [3], the system named is SK-MEL-5 melanoma.
Assay [4] relates to HCT-116 colon.
Assay [5] has as its system NCI-H23 lung.
Assay [6] relates to RXF 393 renal.
Assay [7] has as its system HOP-92 NSCLC.
For assay [8], the system named is COLO 205 colon.
Assay [9] relates to EKVX NSCLC.
Assay [10] relates to PC-3 prostate.

Regarding `CCc1c(O)cc(=O)oc1-c1ccc(OC)c(OC)c1`, the TGI in assay [1], in assay [2], in assay [3], in assay [4], in [5] and in [6] was more than 100 µM throughout. Further, the TGI in assay [7], in [8], in assay [9] and in [10] was more than 100 µM throughout.

`CCCCCCN(CCCCCC)C(=S)N/N=C(\C)c1ccccn1`: the TGI in assay [1] turned out to be 2.62 µM; in assay [2] it was 3.04 µM; in assay [3], 2.57 µM; in assay [4], 2.39 µM; in [5], 3.27 µM; in [6], 2.78 µM. Further, the TGI in [7] came out at 6.43 µM; in assay [8], 2.14 µM; in assay [9], 3.01 µM; in assay [10] it was 1.88 µM.

On to `[N-]=[N+]=CC(=O)C1CCCN1C(=O)c1ccccc1` (stereo not given), for which the TGI in [1], in assay [2], in assay [3], in [4], in assay [5] and in assay [6] was more than 10 µM in each case. Also, the TGI in assay [7], in assay [8], in [9] and in assay [10] was more than 10 µM throughout.

Regarding `CC(=O)O[C@@H](c1nccn1Cc1ccccc1)[C@H]1OC(C)(C)O[C@@H]1[C@H]1COC(C)(C)O1`, the TGI in assay [1], in [2], in assay [3], in assay [4], in assay [5] and in assay [6] was more than 100 µM each time. Also, the TGI in assay [7], in assay [8], in assay [9] and in assay [10] was more than 100 µM throughout.

`O=C(CCc1cc(O)cc(O)c1)NCCc1cc(OCc2ccccc2)cc(OCc2ccccc2)c1`: the TGI in [1] was found to be 31.4 µM; in assay [2], 55 µM; in assay [3], 25.6 µM; in assay [4], 32.2 µM; in assay [5], 24.6 µM; in assay [6] it was 27.4 µM. The TGI in assay [7] amounted to 45.3 µM; in [8] it was 44.3 µM; in assay [9] it was 22.6 µM; in assay [10] it was 23.6 µM.

Take `COc1ccc2nc(NC(=O)/C(C#N)=C/c3ccccc3)sc2c1`: the TGI in assay [1] was more than 86.3 µM; in assay [2], more than 100 µM; in assay [3], more than 73.6 µM; in [4], more than 100 µM; in [5] it was more than 100 µM; in [6], more than 100 µM. The TGI in [7], in [8], in assay [9] and in assay [10] was more than 100 µM in each case.

With `O=c1oc2ccc3ccccc3c2cc1-c1cn2ccsc2n1`, the TGI stood at 23.2 µM in assay [1]; 57.3 µM in assay [2]; 56.5 µM in assay [3]; 30.9 µM in [4]; 92 µM in [5]; 37.4 µM in assay [6]. Besides, the TGI in assay [7] came out at 30 µM; in assay [8] it was 33.3 µM; in [9] it was 54.5 µM; in [10] it was 96.4 µM.

As to `CCOC(=O)CSc1nc(N)c2c(-c3ccccc3)c3c(nc2n1)CCCC3`, the TGI in assay [1], in assay [2], in assay [3], in assay [4], in assay [5] and in [6] was more than 100 µM each time. In addition, the TGI in [7], in assay [8], in [9] and in assay [10] was more than 100 µM each time.

Regarding `Cc1nnc2n(c1=O)CCCN2C`, the TGI in [1], in [2], in assay [3], in assay [4], in assay [5] and in assay [6] was more than 100 µM throughout. Moreover, the TGI in assay [7], in assay [8], in assay [9] and in assay [10] was more than 100 µM in each case.

For `COc1ccc(N=Nc2c(-c3c(OC)cc4occc4c3OC)[nH]c(=O)c(C#N)c2C)cc1`, the TGI in assay [1], in assay [2], in assay [3], in assay [4], in [5] and in assay [6] was more than 100 µM each time. Further, the TGI in assay [7], in assay [8], in assay [9] and in assay [10] was more than 100 µM in each case.

As for `COC(=O)/C=C(/C=C1/C(C#N)=C(N)N(c2ccc(Cl)cc2)C1(C)/C(=C\C(=O)OC)C(=O)OC)C(=O)OC` (stereo not given), the TGI in assay [1] came out at 60.2 µM; in assay [2], 36.2 µM; in [3], 29.4 µM; in assay [4], 31.2 µM; in [5], 40.5 µM; in assay [6], 35.4 µM. The TGI in assay [7] was 48 µM; in [8], 29.8 µM; in assay [9], more than 100 µM; in [10] it was 35 µM.

For `COC(=O)/C=C(\C)CC/C=C(\C)CCC1OC1(C)C` (stereo not given), the TGI in assay [1] stood at 26.9 µM; in assay [2] it was 23.3 µM; in assay [3], 22.4 µM; in assay [4], 24.3 µM; in assay [5], 24.2 µM; in [6] it was 23.8 µM. The TGI in [7] worked out at 22.8 µM; in assay [8], 30 µM; in assay [9], 24.3 µM; in assay [10] it was 17.4 µM.

`C[n+]1cc2cc(O)c(O)cc2c2ccc3cc(O)c(O)cc3c21`: the TGI in [1] was 4.75 µM; in assay [2] it was more than 100 µM; in [3] it was more than 54.8 µM; in [4] it was 4.21 µM; in [5], 18.3 µM; in assay [6] it was 9.34 µM. For the same compound, the TGI was 11.5 µM in assay [7], more than 84.5 µM in [8], more than 100 µM in assay [9] and 34.4 µM in assay [10].

`Cn1nc(-c2ccc(S(=O)(=O)/N=C(\NN)Nc3ccc(Cl)cc3)s2)cc1C(F)(F)F`: the TGI turned out to be 36 µM in assay [1]; 33.8 µM in assay [2]; 35.9 µM in assay [3]; 29.2 µM in assay [4]; 40.9 µM in assay [5]; 23.6 µM in assay [6]. Further, the TGI in assay [7] stood at 40.2 µM; in [8] it was 37.6 µM; in assay [9], 28.2 µM; in [10], 31.2 µM.

On to `O=C(/C=C/c1ccc(Cl)cc1)Oc1ccc(C=C2CCC/C(=C\c3ccc(OC(=O)/C=C/c4ccc(Cl)cc4)cc3)C2=O)cc1`, for which the TGI in [1], in assay [2], in [3], in assay [4], in assay [5] and in assay [6] was more than 100 µM throughout. For the same compound, the TGI in assay [7], in assay [8], in assay [9] and in [10] was more than 100 µM in each case.

Consider `O=C(/C=C/c1ccc(O)c(O)c1)OCCc1ccc2ccccc2c1`, for which the TGI in assay [1] was found to be 10.4 µM; in assay [2], 21.8 µM; in assay [3] it was 13.2 µM; in assay [4], 17.9 µM; in assay [5], 14.7 µM; in assay [6], 21.6 µM. Moreover, the TGI in assay [7] amounted to 19.6 µM; in [8], 16.4 µM; in assay [9], 28.7 µM; in [10] it was 20.5 µM.

Take `CN(C)c1ccc(/C=C(\NC(=O)c2ccccc2)C(=O)NC(CC(=O)O)C(=O)O)cc1` (stereo not given): the TGI in assay [1], in assay [2], in assay [3], in assay [4], in assay [5] and in [6] was more than 100 µM each time. Besides, the TGI in assay [7], in assay [8], in [9] and in [10] was more than 100 µM each time.

Take `CC1=CC2C3(C)C(C)(C(C)=CP3(=O)c3c(C(C)C)cc(C(C)C)cc3C(C)C)C1P2(=O)c1c(C(C)C)cc(C(C)C)cc1C(C)C` (stereo not given): the TGI was found to be 6.1 µM in assay [1]; 8.23 µM in assay [2]; 3 µM in assay [3]; 4.02 µM in assay [4]; 4.09 µM in assay [5]; 15.8 µM in assay [6]. Also, the TGI in assay [7] came to 7.97 µM; in assay [8], 3.3 µM; in [9], 9.83 µM; in assay [10], 10.4 µM.

On to `COC1OC(C)C(NC(=O)OCC(Cl)(Cl)Cl)C2OC(C)(C)OC12` (stereo not given), for which the TGI in [1], in assay [2], in assay [3], in assay [4], in assay [5] and in [6] was more than 100 µM in each case. The TGI in [7], in assay [8], in assay [9] and in assay [10] was more than 100 µM throughout.

As to `c1ccc(C2=NC3OC2c2ccccc23)cc1` (stereo not given), the TGI in assay [1], in [2], in assay [3], in [4], in [5] and in assay [6] was more than 10 µM in each case. Further, the TGI in assay [7], in assay [8], in [9] and in assay [10] was more than 10 µM each time.

As to `Cc1ccc2cccc(-c3cccc4ccccc34)c2n1`, the TGI was more than 100 µM in assay [1]; more than 100 µM in assay [2]; 32.2 µM in [3]; 95 µM in assay [4]; more than 100 µM in assay [5]; 35.7 µM in [6]. The TGI in assay [7] was 62.1 µM; in assay [8] it was more than 100 µM; in assay [9], 84.9 µM; in [10], more than 100 µM.

Take `COc1cccc(C2c3cc4c(cc3OC(O)C2C)OCO4)c1OC` (stereo not given): the TGI was found to be 36.4 µM in assay [1]; 39.5 µM in [2]; 21.8 µM in [3]; 12.3 µM in assay [4]; 64 µM in assay [5]; 23.5 µM in [6]. Further, the TGI in assay [7] was found to be 8.55 µM; in assay [8], 19.7 µM; in [9] it was 78.7 µM; in [10] it was 32.1 µM.

For the compound `Cc1c(C)n(-c2ccccc2)c2nc(S(C)=O)nc(S(C)=O)c12` (stereo not given), the TGI in [1] is 17.2 µM; in assay [2] it was 14.9 µM; in assay [3], 6.1 µM; in assay [4], 4.86 µM; in [5], 29.5 µM; in [6] it was 14.4 µM. Moreover, the TGI in assay [7] was 4.62 µM; in [8], 3.41 µM; in [9], 22.8 µM; in assay [10], 19.7 µM.

With `NS(=O)(=O)c1nnc(NC(=O)N(c2ccccc2)c2ccccc2)s1`, the TGI in assay [1] is 52.6 µM; in assay [2], more than 100 µM; in [3], 67 µM; in assay [4], 83.8 µM; in assay [5] it was 58.9 µM; in [6] it was 51.4 µM. Further, the TGI in assay [7] was 53 µM; in [8], more than 100 µM; in [9], 78.2 µM; in assay [10], more than 100 µM.

In the case of `O=c1c(F)cn2c(=O)n1CCCCCCCn1c(=O)c(F)cn(c1=O)CCCCCCC2`, the TGI is more than 100 µM in [1]; 22.2 µM in assay [2]; more than 100 µM in assay [3]; more than 100 µM in assay [4]; more than 100 µM in assay [5]; more than 100 µM in [6]. Further, the TGI in [7], in assay [8], in assay [9] and in assay [10] was more than 100 µM in each case.

As for `CN1CSC(=S)N(c2cccc(C(F)(F)F)c2)C1`, the TGI in assay [1] is 37.3 µM; in [2], 52 µM; in assay [3], 31.4 µM; in [4], more than 100 µM; in assay [5], 33.2 µM; in assay [6], more than 100 µM. Moreover, the TGI in assay [7] was found to be 50.5 µM; in assay [8], 37.2 µM; in assay [9], 67.7 µM; in assay [10] it was 69.1 µM.

In the case of `CCCCI(O)OS(=O)(=O)c1ccc(C)cc1`, the TGI in assay [1] is 73.8 µM; in assay [2] it was more than 100 µM; in assay [3] it was more than 100 µM; in assay [4], more than 100 µM; in assay [5], more than 100 µM; in assay [6], more than 100 µM. Besides, the TGI in assay [7], in assay [8], in assay [9] and in assay [10] was more than 100 µM throughout.
